Test results reported in US20050019425A1, “Composition and method” (priority 2001, published 2005).

Key:
[1] = system: Hair growth of Beagles; assay: Hair growth measurement in adult beagles fed diets with various levels of selenium; format: in vivo, dog (Beagle)
Description: Adult beagles of both male and females are used. They are between 1.2 and 3.7 years of age at the start of the experiment.
(§1) Study Design: Thirty-six adult dogs are divided into six groups of six dogs in each group based on their age, gender and body condition score so that the averages of those three criteria are similar among groups. All dogs are given the basal diet for three weeks (pre-treatment period) before they are allocated to one of the experimental diets. The third week of the pre-treatment period is considered as week 0 of the study. Hair growth is measured in weeks 0, 11 and 22 of the study using the method described below. Dogs are fed with the experimental diets for 24 weeks.
(§2) A torula yeast basal diet is used. The basal diet is nutritionally complete and balanced for an adult dog except for selenium. Different amounts of selenium (as selenomethionine) are added into the basal diet to form six experimental diets which contain 0, 0.05, 0.1, 0.5, 1 or 5 mg selenium/kg diet dry matter, respectively. Selenium concentrations in the experimental diets are confirmed by chemical analyses. The analyzed dietary selenium concentrations were 0.034, 0.085, 0.123, 0.527, 1.025 and 5.045 mg/kg dry matter, respectively.
Hair Growth Measurement: Hairs in an area of […] on the left side of the body above the hind leg and about 3 cm away from the spinal are clipped with an electronic clipper (Oster Pro™ Model 78400-01A, blade size: 40.1 mm, Oster Elite™). The hair is cut as close to the skin as possible. A tattoo dot of about 1 mm in diameter is made in the center of the clipped area using a tattoo marker (Spaulding Special Electric Tattoo Marker, Model SSEMK). Hair growth is measured by taking photographs from the same clipped area twice using the tattoo dot as a marker. The first photograph is taken right after the clipping and the second photograph four days later. A Polaroid close-up camera (CU-5) and Polaroid 665 films are used to take photographs. A glass slide is attached to the front frame of the camera to press hairs to the skin to minimize errors caused by the angle formed between standing hair and the skin. The image is magnified three times by the camera. Same exposure conditions are used for all dogs in the study. On each day of photograph shooting, a photograph is also taken of a ruler with clear markers under the same conditions and serves as a reference. After exposure, both prints and negatives of the films are treated according to the use directions. The negative films provide sharp and clear images of hairs and are used for hair growth measurement. The negative films are scanned (EPSON Expression 836XL) into a computer. Afterwards, the length of primary hairs in the film is measured using an image analyzing software (BioScan Optimas). The difference of the average hair lengths between the first and the second photographs from the same dog is the hair growth during the four-day period.

[2] = Clinical signs, food intake, body weight, blood and thyroid hormone measurements in dogs during the 24-week feeding study; format: in vivo, dog (Beagle); conditions: diets with 0 to 5 mg added selenium/kg, study period 24 weeks
Method: as §1, §2

**Q.** What does the source list for C[Se]CC[C@H](N)C(=O)O [selenium, selenomethionine]?
**A.** Hair growth ([1]; dietary Se 0.034 mg/kg dry matter (0 added), Week 0 (pre-treatment, basal diet)): 0.21 mm/day; Hair growth ([1]; dietary Se 0.034 mg/kg dry matter (0 added), Week 11): 0.12 mm/day; Hair growth ([1]; dietary Se 0.034 mg/kg dry matter (0 added), Week 22): 0.12 mm/day; Hair growth ([1]; dietary Se 0.085 mg/kg dry matter (0.05 added), Week 0 (pre-treatment, basal diet)): 0.18 mm/day; Hair growth ([1]; dietary Se 0.085 mg/kg dry matter (0.05 added), Week 11): 0.15 mm/day; Hair growth ([1]; dietary Se 0.085 mg/kg dry matter (0.05 added), Week 22): 0.11 mm/day; Hair growth ([1]; dietary Se 0.123 mg/kg dry matter (0.1 added), Week 0 (pre-treatment, basal diet)): 0.13 mm/day; Hair growth ([1]; dietary Se 0.123 mg/kg dry matter (0.1 added), Week 11): 0.26 mm/day; Hair growth ([1]; dietary Se 0.123 mg/kg dry matter (0.1 added), Week 22): 0.20 mm/day; Hair growth ([1]; dietary Se 0.527 mg/kg dry matter (0.5 added), Week 0 (pre-treatment, basal diet)): 0.15 mm/day; Hair growth ([1]; dietary Se 0.527 mg/kg dry matter (0.5 added), Week 11): 0.22 mm/day; Hair growth ([1]; dietary Se 0.527 mg/kg dry matter (0.5 added), Week 22): 0.23 mm/day; Hair growth ([1]; dietary Se 1.025 mg/kg dry matter (1 added), Week 0 (pre-treatment, basal diet)): 0.18 mm/day; Hair growth ([1]; dietary Se 1.025 mg/kg dry matter (1 added), Week 11): 0.26 mm/day; Hair growth ([1]; dietary Se 1.025 mg/kg dry matter (1 added), Week 22): 0.20 mm/day; Hair growth ([1]; dietary Se 5.045 mg/kg dry matter (5 added), Week 0 (pre-treatment, basal diet)): 0.20 mm/day; Hair growth ([1]; dietary Se 5.045 mg/kg dry matter (5 added), Week 11): 0.14 mm/day; Hair growth ([1]; dietary Se 5.045 mg/kg dry matter (5 added), Week 22): 0.13 mm/day; Effect on hair growth of dogs (conclusion) ([1]; dietary selenium concentrations from 0.1 to about 4.5 mg selenium/kg diet): maximize hair growth of dogs; Rate of hair growth compared between diet groups ([1]; diets containing 0.1, 0.5 or 1 mg selenium/kg vs 0, 0.05 or 5 mg selenium/kg, week 11 and 22): significantly (p<0.05) higher rate of hair growth; Difference in hair growth among groups ([1]; week 0 (pre-treatment)): no difference in hair growth among groups; Average food intake and body weights [2]: not affected by the dietary treatments; Blood CBC and chemistry measurements, serum total thyroxine and 3,5,3'-triiodothyronine [2]: within the normal ranges
